Assay results taken from ChEMBL document CHEMBL4000195, “Design and synthesis of novel 7-aminosubstituted pyrido[2,3-b]pyrazines exhibiting anti-breast cancer activity” (Eur J Med Chem, 2017).
Active and inactive are the calls of the source. No cut-off for these calls is given here.

How the values were obtained:
T47D = assay: Cytotoxicity against human T47D cells at 10 uM by MTT assay; format: functional
MDA-MB-231 = assay: Cytotoxicity against human MDA-MB-231 cells by MTT assay; format: functional, cell-based
HCC1954 [1] = assay: Cytotoxicity against human HCC1954 cells by MTT assay; format: functional, cell-based
[2] = target: Dual specificity protein kinase CLK1 (Mus musculus) (UniProt P22518); assay: Inhibition of mouse CLK1
[3] = target: Dual specificity tyrosine-phosphorylation-regulated kinase 1A (Rattus norvegicus) (UniProt Q63470); assay: Inhibition of rat DYRK1A using myelin basic protein as substrate in presence of [gamma33P]ATP after 30 mins by scintillation counting method
Sus scrofa = species: Sus scrofa; assay: Inhibition of pig CK1delta/epsilon
[4] = target: Vascular endothelial growth factor receptor 2 (Homo sapiens) (UniProt P35968); assay: Inhibition of recombinant human GST-tagged VEGFR-2 (789-end residues) transphosphorylation activity expressed in baculovirus infected Sf9 cells using poly[Glu:Tyr] (4:1) as substrate after 60 mins
[5] = target: Platelet-derived growth factor receptor beta (Homo sapiens) (UniProt P09619); assay: Inhibition of recombinant human GST-tagged PDGFR-beta (557-end residues) transphosphorylation activity expressed in baculovirus infected Sf9 cells using poly[Glu:Tyr] (4:1) as substrate after 60 mins
[6] = target: Mast/stem cell growth factor receptor Kit (Homo sapiens) (UniProt P10721); assay: Inhibition of recombinant human GST-tagged KIT (544-end residues) transphosphorylation activity expressed in baculovirus infected Sf9 cells using poly[Glu:Tyr] (4:1) as substrate after 60 mins
[7] = target: Phosphatidylinositol 4,5-bisphosphate 3-kinase catalytic subunit alpha isoform (Homo sapiens, UniProt P42336); assay: Inhibition of PI3Kalpha catalytic domain (unknown origin) using PIP2 liposomes as substrate in presence of biotin-labeled PIP3 and GST-GRP1-PH by streptavidin-HRP based assays
Mus musculus [8] = assay: Toxicity in NOD/SCID mouse assessed as phenotypic changes at 0.5 mg/kg, po administered as single dose; format: organism-based; conditions: in vivo
[9] = Tmax in NOD/SCID mouse at 10 mg/kg, ip administered as single dose by LC-MS/MS method; format: ADME, organism-based; conditions: in vivo
[10] = AUC (0 to 8 hrs) in NOD/SCID mouse at 40 mg/kg, ip administered as single dose by LC-MS/MS method; format: ADME, organism-based; design: time < 8 hr, dose 40 mg/kg, route intraperitoneal; conditions: in vivo
[11] = Cmax in NOD/SCID mouse at 10 mg/kg, ip administered twice by LC-MS/MS method; format: ADME, organism-based; design: dose 10 mg/kg, route intraperitoneal; conditions: in vivo
[12] = Tmax in NOD/SCID mouse at 10 mg/kg, ip administered twice by LC-MS/MS method; format: ADME, organism-based; conditions: in vivo
Mus musculus [13] = assay: Toxicity in NOD/SCID mouse assessed as phenotypic changes at 40 mg/kg, ip […]; format: organism-based; conditions: in vivo
Mus musculus [14] = assay: Toxicity in NOD/SCID mouse assessed as phenotypic changes at 10 mg/kg, ip administered once daily for 18 days measured after 1 hr last dose; format: organism-based; conditions: in vivo
Mus musculus [15] = assay: Toxicity in NOD/SCID mouse assessed as change in body weight at 10 mg/kg, ip administered once daily for 18 days measured after 1 hr last dose; format: organism-based; conditions: in vivo
HCC1954 [16] = assay: Anti-tumor activity against HER2-amplified human HCC1954 cells xenografted in NOD/SCID mouse assessed as tumor weight at 10 mg/kg, ip administered once daily for 18 days measured after 1 hr last dose (reference value: 0.8 +/- 0.07 g); format: functional
[17] = target: Focal adhesion kinase 1 (Homo sapiens) (UniProt Q05397); assay: Inhibition of human wild type partial length FAK (D402 to R696 residues) expressed in bacterial expression system at 10 uM by KinomeScan method relative to control
[18] = target: Insulin-like growth factor 1 receptor (Homo sapiens) (UniProt P08069); assay: Inhibition of human wild type partial length IGF1R (L972 to D1294 residues) expressed in bacterial expression system at 10 uM by KinomeScan method relative to control
[19] = target: Tyrosine-protein kinase JAK3 (Homo sapiens) (UniProt P52333); assay: Inhibition of human wild type partial length JAK3 (I781 to S1124 residues) expressed in mammalian expression system at 10 uM by KinomeScan method relative to control
[20] = target: Platelet-derived growth factor receptor beta (Homo sapiens) (UniProt P09619); assay: Inhibition of human wild type partial length PDGFRB (V582 to Y1009 residues) expressed in bacterial expression system at 10 uM by KinomeScan method relative to control
[21] = target: Proto-oncogene tyrosine-protein kinase Src (Homo sapiens) (UniProt P12931); assay: Inhibition of human wild type partial length SRC (L240 to L536 residues) expressed in bacterial expression system at 10 uM by KinomeScan method relative to control
[22] = target: Tyrosine-protein kinase SYK (Homo sapiens) (UniProt P43405); assay: Inhibition of human wild type partial length SYK (D354 to N635 residues) expressed in bacterial expression system at 10 uM by KinomeScan method relative to control
[23] = target: Tyrosine-protein kinase Tec (Homo sapiens) (UniProt P42680); assay: Inhibition of human wild type partial length TEC (L341 to D620 residues) expressed in bacterial expression system at 10 uM by KinomeScan method relative to control
Mus musculus [24] = assay: In vivo inhibition of SRC phosphorylation at Tyr-416 residue in NOD/SCID mouse tumor xenografted with HER2-amplified human HCC1954 cells at 10 mg/kg, ip administered once daily for 18 days measured after 1 hr last dose by […]; format: functional, organism-based

Sequence of Platelet-derived growth factor receptor beta (Homo sapiens) (P09619 whole entry, the tested form may be a part): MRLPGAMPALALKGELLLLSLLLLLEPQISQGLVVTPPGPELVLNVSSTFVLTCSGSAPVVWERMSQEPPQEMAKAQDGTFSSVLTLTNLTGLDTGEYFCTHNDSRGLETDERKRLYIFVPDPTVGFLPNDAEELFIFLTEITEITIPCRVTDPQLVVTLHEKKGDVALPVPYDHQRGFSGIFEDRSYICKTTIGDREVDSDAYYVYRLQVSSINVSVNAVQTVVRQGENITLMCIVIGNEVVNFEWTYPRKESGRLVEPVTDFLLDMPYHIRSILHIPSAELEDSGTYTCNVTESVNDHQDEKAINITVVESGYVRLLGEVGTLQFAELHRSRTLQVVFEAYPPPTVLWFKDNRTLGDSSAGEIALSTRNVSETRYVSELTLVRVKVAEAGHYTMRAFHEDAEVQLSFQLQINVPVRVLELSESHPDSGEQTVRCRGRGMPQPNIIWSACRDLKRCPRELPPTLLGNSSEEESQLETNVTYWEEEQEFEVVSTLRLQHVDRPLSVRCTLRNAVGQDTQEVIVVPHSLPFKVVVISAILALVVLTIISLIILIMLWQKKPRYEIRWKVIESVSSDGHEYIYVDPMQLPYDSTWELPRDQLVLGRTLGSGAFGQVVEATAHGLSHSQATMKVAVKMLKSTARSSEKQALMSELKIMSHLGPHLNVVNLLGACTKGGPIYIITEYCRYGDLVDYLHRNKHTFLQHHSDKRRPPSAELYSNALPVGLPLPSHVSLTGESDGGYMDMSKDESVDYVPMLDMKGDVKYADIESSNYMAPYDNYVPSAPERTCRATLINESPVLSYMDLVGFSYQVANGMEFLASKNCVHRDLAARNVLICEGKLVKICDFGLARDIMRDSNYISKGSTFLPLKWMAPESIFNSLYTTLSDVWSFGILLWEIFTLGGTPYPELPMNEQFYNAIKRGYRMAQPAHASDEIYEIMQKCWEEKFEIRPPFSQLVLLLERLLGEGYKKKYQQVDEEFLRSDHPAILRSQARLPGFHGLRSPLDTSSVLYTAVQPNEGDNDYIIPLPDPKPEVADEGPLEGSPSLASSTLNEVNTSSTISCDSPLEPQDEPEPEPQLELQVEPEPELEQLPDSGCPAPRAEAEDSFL
Sequence of Proto-oncogene tyrosine-protein kinase Src (Homo sapiens) (P12931 2-536 limits assumed): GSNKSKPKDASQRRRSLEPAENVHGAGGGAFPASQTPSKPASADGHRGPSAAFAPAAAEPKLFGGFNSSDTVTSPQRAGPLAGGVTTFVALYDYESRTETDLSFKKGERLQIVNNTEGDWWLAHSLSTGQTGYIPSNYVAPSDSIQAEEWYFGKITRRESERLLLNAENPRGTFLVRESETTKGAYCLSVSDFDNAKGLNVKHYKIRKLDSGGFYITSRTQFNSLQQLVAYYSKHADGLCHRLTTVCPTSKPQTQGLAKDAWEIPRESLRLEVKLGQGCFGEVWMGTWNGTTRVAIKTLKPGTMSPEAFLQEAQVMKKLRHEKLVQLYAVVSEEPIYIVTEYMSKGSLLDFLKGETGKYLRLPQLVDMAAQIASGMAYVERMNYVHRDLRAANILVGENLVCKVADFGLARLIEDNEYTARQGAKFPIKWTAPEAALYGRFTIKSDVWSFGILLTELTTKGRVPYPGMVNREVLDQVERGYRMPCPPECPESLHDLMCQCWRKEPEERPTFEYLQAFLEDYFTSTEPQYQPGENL
Sequence of Tyrosine-protein kinase Tec (Homo sapiens) (P42680 whole entry, the tested form may be a part): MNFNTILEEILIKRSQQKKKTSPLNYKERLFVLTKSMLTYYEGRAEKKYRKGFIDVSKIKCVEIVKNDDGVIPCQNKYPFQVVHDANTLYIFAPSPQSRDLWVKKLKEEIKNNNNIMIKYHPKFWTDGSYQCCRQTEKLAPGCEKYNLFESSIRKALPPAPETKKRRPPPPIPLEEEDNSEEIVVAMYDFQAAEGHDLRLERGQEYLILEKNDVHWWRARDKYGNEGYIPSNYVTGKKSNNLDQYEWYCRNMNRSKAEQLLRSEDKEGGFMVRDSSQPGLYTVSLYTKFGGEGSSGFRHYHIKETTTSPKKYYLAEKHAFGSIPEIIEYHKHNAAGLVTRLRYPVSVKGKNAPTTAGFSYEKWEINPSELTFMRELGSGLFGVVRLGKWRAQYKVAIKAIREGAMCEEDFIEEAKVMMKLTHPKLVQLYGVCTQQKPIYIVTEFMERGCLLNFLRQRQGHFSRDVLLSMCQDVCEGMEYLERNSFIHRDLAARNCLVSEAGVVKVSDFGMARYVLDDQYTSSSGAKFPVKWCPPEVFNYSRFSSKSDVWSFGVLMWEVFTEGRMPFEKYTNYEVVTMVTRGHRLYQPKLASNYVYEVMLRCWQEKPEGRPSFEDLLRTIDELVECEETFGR
Sequence of Focal adhesion kinase 1 (Homo sapiens) (Q05397 2-1052 limits assumed): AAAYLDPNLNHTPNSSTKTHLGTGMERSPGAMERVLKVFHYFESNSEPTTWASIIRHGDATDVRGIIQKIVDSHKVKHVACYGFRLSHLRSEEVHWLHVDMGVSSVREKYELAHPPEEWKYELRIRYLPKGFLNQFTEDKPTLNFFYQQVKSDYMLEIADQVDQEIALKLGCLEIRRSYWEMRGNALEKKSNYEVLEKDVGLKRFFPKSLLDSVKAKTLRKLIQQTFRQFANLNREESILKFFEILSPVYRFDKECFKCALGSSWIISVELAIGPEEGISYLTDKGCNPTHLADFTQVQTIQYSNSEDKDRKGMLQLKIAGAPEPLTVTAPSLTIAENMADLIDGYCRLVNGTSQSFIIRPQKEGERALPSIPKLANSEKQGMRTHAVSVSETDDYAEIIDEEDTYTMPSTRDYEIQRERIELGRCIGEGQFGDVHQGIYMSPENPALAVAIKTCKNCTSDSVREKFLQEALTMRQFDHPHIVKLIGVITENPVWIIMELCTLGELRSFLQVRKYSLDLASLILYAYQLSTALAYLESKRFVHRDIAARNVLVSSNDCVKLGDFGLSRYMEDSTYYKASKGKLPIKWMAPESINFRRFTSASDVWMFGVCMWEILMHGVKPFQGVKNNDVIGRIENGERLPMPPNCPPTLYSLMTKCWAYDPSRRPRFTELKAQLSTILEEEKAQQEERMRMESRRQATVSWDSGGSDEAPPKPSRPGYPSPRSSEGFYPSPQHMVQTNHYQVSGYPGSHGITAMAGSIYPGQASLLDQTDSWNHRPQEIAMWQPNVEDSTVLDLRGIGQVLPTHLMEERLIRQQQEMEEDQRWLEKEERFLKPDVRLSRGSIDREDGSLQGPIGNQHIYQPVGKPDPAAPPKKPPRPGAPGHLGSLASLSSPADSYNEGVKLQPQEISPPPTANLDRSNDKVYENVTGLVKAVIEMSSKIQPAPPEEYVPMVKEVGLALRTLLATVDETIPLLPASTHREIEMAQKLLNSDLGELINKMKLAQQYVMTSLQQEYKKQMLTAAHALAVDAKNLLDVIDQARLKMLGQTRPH
Sequence of Vascular endothelial growth factor receptor 2 (Homo sapiens) (P35968 whole entry): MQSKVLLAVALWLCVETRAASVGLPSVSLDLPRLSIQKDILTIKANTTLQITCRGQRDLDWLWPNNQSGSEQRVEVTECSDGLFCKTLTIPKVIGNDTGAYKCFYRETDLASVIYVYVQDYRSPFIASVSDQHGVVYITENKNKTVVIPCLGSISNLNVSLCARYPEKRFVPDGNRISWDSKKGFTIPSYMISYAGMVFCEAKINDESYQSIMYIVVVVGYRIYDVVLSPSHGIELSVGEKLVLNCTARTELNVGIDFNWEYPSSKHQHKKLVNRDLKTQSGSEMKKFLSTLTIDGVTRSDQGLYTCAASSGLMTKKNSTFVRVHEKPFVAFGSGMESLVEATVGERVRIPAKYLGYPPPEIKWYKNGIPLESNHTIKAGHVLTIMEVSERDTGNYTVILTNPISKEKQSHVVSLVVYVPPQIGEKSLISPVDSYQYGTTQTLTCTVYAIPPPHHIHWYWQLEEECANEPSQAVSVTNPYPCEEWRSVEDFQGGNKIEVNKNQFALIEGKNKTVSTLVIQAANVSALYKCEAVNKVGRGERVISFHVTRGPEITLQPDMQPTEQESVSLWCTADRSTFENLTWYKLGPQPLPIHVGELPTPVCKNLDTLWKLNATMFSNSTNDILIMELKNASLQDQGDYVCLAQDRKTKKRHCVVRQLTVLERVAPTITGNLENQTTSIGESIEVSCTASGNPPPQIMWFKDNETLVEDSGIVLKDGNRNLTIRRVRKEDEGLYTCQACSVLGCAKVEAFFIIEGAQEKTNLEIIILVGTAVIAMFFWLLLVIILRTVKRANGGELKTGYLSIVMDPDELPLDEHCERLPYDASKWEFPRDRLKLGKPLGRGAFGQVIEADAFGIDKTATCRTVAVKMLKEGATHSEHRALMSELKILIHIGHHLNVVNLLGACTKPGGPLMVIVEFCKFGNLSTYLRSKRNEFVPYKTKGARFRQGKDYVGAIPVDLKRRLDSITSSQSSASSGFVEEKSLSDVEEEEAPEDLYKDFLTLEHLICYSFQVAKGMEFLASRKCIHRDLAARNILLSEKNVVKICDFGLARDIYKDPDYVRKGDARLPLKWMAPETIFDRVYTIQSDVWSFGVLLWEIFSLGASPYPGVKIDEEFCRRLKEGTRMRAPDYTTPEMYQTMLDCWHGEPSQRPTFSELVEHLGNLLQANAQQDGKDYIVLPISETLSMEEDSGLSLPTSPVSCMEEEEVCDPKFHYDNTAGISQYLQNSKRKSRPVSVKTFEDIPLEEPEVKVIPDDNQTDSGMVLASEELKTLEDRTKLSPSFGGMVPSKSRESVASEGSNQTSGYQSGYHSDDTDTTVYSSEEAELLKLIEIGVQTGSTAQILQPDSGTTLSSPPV

Cc1nc2nc(Sc3ccccc3)cnc2cc1NC(=O)Nc1ccccc1
Activity (T47D): >50% | IC50 (MDA-MB-231): 6.1 µM | IC50 (HCC1954 [1]): 1.5 µM | inhibition [2]: inactive | inhibition [3]: inactive | inhibition (Sus scrofa): inactive | inhibition [4]: inactive | inhibition [5]: inactive | inhibition [6]: inactive | IC50 [7]: 26 µM | Activity (Mus musculus [8]): Non-Toxic | Tmax [9]: 2 h | AUC(0-t) at 8 h [10]: 131 µM·h | Cmax [11]: 6.45 µM | Tmax [12]: 2 h | Activity (Mus musculus [13]): Toxic | Activity (Mus musculus [14]): Non-Toxic | Activity (Mus musculus [15]): Non-Toxic | Activity (HCC1954 [16]): 0.2 g | inhibition [17]: 0% | inhibition [18]: 6% | inhibition [19]: 0% | inhibition [20]: 0% | inhibition [21]: 3% | inhibition [22]: 10% | inhibition [23]: 9% | inhibition (Mus musculus [24]): Active
